Measurements reported in patent US10894784B2, “Heteroarylbenzimidazole compounds” (BAYER PHARMA AKTIENGESELLSCHAFT, priority 2015, dated 2021).
pIC50: −log10 of the molar value.

Molecular target: TBK1 (Homo sapiens (Human), UniProt Q9UHD2)
Assay: TBK1 low ATP kinase assay (in vitro assay 1)
Type: biochemical
Conditions: in vitro assay 1, read-out: TBK1 low ATP kinase assay IC50

TBK1, sequence (Q9UHD2 whole entry): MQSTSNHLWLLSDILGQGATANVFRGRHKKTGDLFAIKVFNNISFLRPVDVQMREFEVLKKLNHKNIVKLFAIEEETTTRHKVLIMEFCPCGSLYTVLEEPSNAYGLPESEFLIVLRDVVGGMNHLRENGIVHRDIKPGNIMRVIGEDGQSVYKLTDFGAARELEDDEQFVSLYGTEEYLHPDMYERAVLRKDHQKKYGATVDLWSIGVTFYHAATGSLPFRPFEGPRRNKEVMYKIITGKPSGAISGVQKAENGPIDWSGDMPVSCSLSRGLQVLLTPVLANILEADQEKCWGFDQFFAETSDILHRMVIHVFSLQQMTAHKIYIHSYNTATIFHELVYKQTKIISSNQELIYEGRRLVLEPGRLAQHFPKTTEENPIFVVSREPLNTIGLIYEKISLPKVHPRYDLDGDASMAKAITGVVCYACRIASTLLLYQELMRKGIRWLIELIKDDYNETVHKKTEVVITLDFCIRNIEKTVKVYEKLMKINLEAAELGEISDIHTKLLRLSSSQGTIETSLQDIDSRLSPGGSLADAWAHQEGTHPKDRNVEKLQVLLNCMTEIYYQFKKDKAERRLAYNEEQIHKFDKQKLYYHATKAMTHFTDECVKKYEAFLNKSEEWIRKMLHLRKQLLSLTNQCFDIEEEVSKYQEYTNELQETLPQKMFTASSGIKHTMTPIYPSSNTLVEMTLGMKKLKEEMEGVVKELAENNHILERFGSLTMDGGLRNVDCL

SMILES	pIC50
O=C(CC(F)(F)F)N1CCN(Cc2ccnc(Nc3nc4ccc(-c5ccn[nH]5)cc4[nH]3)c2)CC1 [Example 124.02, 3,3,3-trifluoro-1-{4-[(2-{[6-(1H-pyrazol-5-yl)-1H-benzimidazol-2-yl]amino}pyridin-4-yl)methyl]piperazin-1-yl}propan-1-one]	7.00
COc1c(NC2CCC2)ncnc1-c1ccc2nc(Nc3cc(C(C)N4CCN(C(=O)OC(C)(C)C)CC4)ccn3)[nH]c2c1 (single isomer, unassigned) [Example 114.01, tert-butyl 4-{(1R or 1S)-1-[2-({6-[6-(cyclobutylamino)-5-methoxypyrimidin-4-yl]-1H-benzimidazol-2-yl}amino)pyridin-4-yl]ethyl}piperazine-1-carboxylate]	7.21
CC(C)(C)OC(=O)N1CCN(Cc2ccnc(Nc3nc4ccc(-c5ccnc(F)c5)cc4[nH]3)c2)CC1 [Example 137.01, tert-butyl 4-[(2-{[6-(2-fluoropyridin-4-yl)-1H-benzimidazol-2-yl]amino}pyridin-4-yl)methyl]piperazine-1-carboxylate]	7.89
CN(c1cc(-c2ccc3nc(Nc4cc(CN5CCN(C(=O)OC(C)(C)C)CC5)ccn4)[nH]c3c2)ncn1)C1CC1 [Example 157.01, tert-butyl 4-({2-[(6-{6-[cyclopropyl(methyl)amino]pyrimidin-4-yl}-1H-benzimidazol-2-yl)amino]pyridin-4-yl}methyl)piperazine-1-carboxylate]	7.60
Cc1noc(-c2ccc3nc(Nc4cc(C(C)N5CCN(C(=O)C6CC6)CC5)ccn4)[nH]c3c2)n1 (racemic) [Example 16.05.03, (rac)-cyclopropyl{4-[1-(2-{[6-(3-methyl-1,2,4-oxadiazol-5-yl)-1H-benzimidazol-2-yl]amino}pyridin-4-yl)ethyl]piperazin-1-yl}methanone]	7.37
CN(c1cc(-c2ccc3nc(Nc4cc(CN5CCN(C(=O)C6CC6)CC5)ccn4)[nH]c3c2)ncn1)C1CCC1 [Example 156.03, [4-({2-[(6-{6-[cyclobutyl(methyl)amino]pyrimidin-4-yl}-1H-benzimidazol-2-yl)amino]pyridin-4-yl}methyl)piperazin-1-yl](cyclopropyl)methanone]	7.72
COc1cncnc1-c1ccc2nc(Nc3cc(CN4CCN(C(=O)CC(F)(F)F)CC4)ccn3)[nH]c2c1 [Example 35.01.01, 3,3,3-trifluoro-1-{4-[(2-{[6-(5-methoxypyrimidin-4-yl)-1H-benzimidazol-2-yl]amino}pyridin-4-yl)methyl]piperazin-1-yl}propan-1-one]	7.72
Cc1noc(-c2ccc3nc(Nc4cc(CN5CCN(c6ccccc6F)CC5)ccn4)[nH]c3c2)n1 [Example 101.02, N-(4-{[4-(2-fluorophenyl)piperazin-1-yl]methyl}pyridin-2-yl)-6-(3-methyl-1,2,4-oxadiazol-5-yl)-1H-benzimidazol-2-amine]	6.17
Cc1nccc(-c2ccc3nc(Nc4cc(C(C)N5CCN(C(=O)C6CCC6)CC5)ccn4)[nH]c3c2)n1 (single isomer, unassigned) [Example 24.05.02.B, cyclobutyl{4-[(1S or 1R)-1-(2-{[6-(2-methylpyrimidin-4-yl)-1H-benzimidazol-2-yl]amino}pyridin-4-yl)ethyl]piperazin-1-yl}methanone]	7.26
COc1cnccc1-c1ccc2nc(Nc3cc(CN4CCN(C(=O)C5CCC5)CC4)ccn3)[nH]c2c1 [Example 04.04, cyclobutyl{4-[(2-{[6-(3-methoxypyridin-4-yl)-1H-benzimidazol-2-yl]amino}pyridin-4-yl)methyl]piperazin-1-yl}methanone]	7.65
O=C(C1CC1)N1CCN(Cc2ccnc(Nc3nc4ccc(-c5nc(C6CCCC6)no5)cc4[nH]3)c2)CC1 [Example 19.01, {4-[(2-{[6-(3-cyclopentyl-1,2,4-oxadiazol-5-yl)-1H-benzimidazol-2-yl]amino}pyridin-4-yl)methyl]piperazin-1-yl}(cyclopropyl)methanone]	6.38
O=C(C1CCC1)N1CCN(Cc2ccnc(Nc3nc4ccc(-c5ccnc(OCC6CC6)n5)cc4[nH]3)c2)CC1 [Example 62.01.02, cyclobutyl(4-{[2-({6-[2-(cyclopropylmethoxy)pyrimidin-4-yl]-1H-benzimidazol-2-yl}amino)pyridin-4-yl]methyl}piperazin-1-yl)methanone]	8.02
COc1cc(-c2ccc3nc(Nc4cc(CN5CCN(C(=O)CC(F)(F)F)CC5)ccn4)[nH]c3c2)ccn1 [Example 02.03, 3,3,3-trifluoro-1-{4-[(2-{[6-(2-methoxypyridin-4-yl)-1H-benzimidazol-2-yl]amino}pyridin-4-yl)methyl]piperazin-1-yl}propan-1-one]	7.43
COc1c(Cl)ncnc1-c1ccc2nc(Nc3cc(CN4CCN(C(=O)CC(F)(F)F)CC4)ccn3)[nH]c2c1 [Example 60.01, 1-{4-[(2-{[6-(6-chloro-5-methoxypyrimidin-4-yl)-1H-benzimidazol-2-yl]amino}pyridin-4-yl)methyl]piperazin-1-yl}-3,3,3-trifluoropropan-1-one]	7.37
Cc1noc(-c2ccc3nc(Nc4cc(CN5C[C@@H](C)N(C(=O)OC(C)(C)C)C[C@@H]5C)ccn4)[nH]c3c2)n1 [Example 16.02.01, tert-butyl (2R,5S)-2,5-dimethyl-4-[(2-{[6-(3-methyl-1,2,4-oxadiazol-5-yl)-1H-benzimidazol-2-yl]amino}pyridin-4-yl)methyl]piperazine-1-carboxylate]	5.65
Cc1ncnc(-c2ccc3nc(Nc4cc(CN5CCN(C(=O)C6CC6)CC5)ccn4)[nH]c3c2)c1C [Example 32.01, cyclopropyl{4-[(2-{[6-(5,6-dimethylpyrimidin-4-yl)-1H-benzimidazol-2-yl]amino}pyridin-4-yl)methyl]piperazin-1-yl}methanone]	6.02
O=C(CC(F)(F)F)N1CCN(Cc2ccnc(Nc3nc4ccc(-c5ncnc6c5COC6)cc4[nH]3)c2)CC1 [Example 182.02, 1-{4-[(2-{[6-(5,7-dihydrofuro[3,4-d]pyrimidin-4-yl)-1H-benzimidazol-2-yl]amino}pyridin-4-yl)methyl]piperazin-1-yl}-3,3,3-trifluoropropan-1-one]	6.96
COc1c(-c2ccc3nc(Nc4cc(C(C)N5CCN(C(=O)OC(C)(C)C)CC5)ccn4)[nH]c3c2)ncnc1N(C)C (single isomer, unassigned) [Example 107.02.01, tert-butyl 4-{(1R or 1S)-1-[2-({6-[6-(dimethylamino)-5-methoxypyrimidin-4-yl]-1H-benzimidazol-2-yl}amino)pyridin-4-yl]ethyl}piperazine-1-carboxylate]	7.68

These reach a higher pIC50. Values come first.

pIC50	SMILES
8.37	Nc1cc(-c2ccc3nc(Nc4cc(CN5CCN(C(=O)C6CC6)CC5)ccn4)[nH]c3c2)ccn1 [Example 138.03, {4-[(2-{[6-(2-aminopyridin-4-yl)-1H-benzimidazol-2-yl]amino}pyridin-4-yl)methyl]piperazin-1-yl}(cyclopropyl)methanone]
8.27	O=C(C1CC1)N1CCN(Cc2ccnc(Nc3nc4ccc(-c5cnn(CC6CC6)c5)cc4[nH]3)c2)CC1 [Example 39.01.03, cyclopropyl(4-{[2-({6-[1-(cyclopropylmethyl)-1H-pyrazol-4-yl]-1H-benzimidazol-2-yl}amino)pyridin-4-yl]methyl}piperazin-1-yl)methanone]
8.14	COc1cc(-c2ccc3nc(Nc4cc(C(C)N5CCN(C(=O)C6CC6)CC5)ccn4)[nH]c3c2)ncn1 (single isomer, unassigned) [Example 34.03.02.B, cyclopropyl{4-[(1S or 1R)-1-(2-{[6-(6-methoxypyrimidin-4-yl)-1H-benzimidazol-2-yl]amino}pyridin-4-yl)ethyl]piperazin-1-yl}methanone]
8.97	CC(c1ccnc(Nc2nc3ccc(-c4cnn(CC5CC5(F)F)c4)cc3[nH]2)c1)N1CCN(C(=O)CC(F)(F)F)CC1 (single isomer, unassigned) [Example 55.02, 1-{4-[(1R or 1S)-1-(2-{[6-(1-{[(1RS)-2,2-difluorocyclopropyl]methyl}-1H-pyrazol-4-yl)-1H-benzimidazol-2-yl]amino}pyridin-4-yl)ethyl]piperazin-1-yl}-3,3,3-trifluoropropan-1-one]
8.35	O=C(CC(F)(F)F)N1CCN(Cc2ccnc(Nc3nc4ccc(-c5cc(OCC6CC6)ncn5)cc4[nH]3)c2)CC1 [Example 80.02, 1-(4-{[2-({6-[6-(cyclopropylmethoxy)pyrimidin-4-yl]-1H-benzimidazol-2-yl}amino)pyridin-4-yl]methyl}piperazin-1-yl)-3,3,3-trifluoropropan-1-one]
8.28	O=C(C1CC1)N1CCN(Cc2ccnc(Nc3nc4ccc(-c5ccnc(OCC6CC6)n5)cc4[nH]3)c2)CC1 [Example 62.01.04, cyclopropyl(4-{[2-({6-[2-(cyclopropylmethoxy)pyrimidin-4-yl]-1H-benzimidazol-2-yl}amino)pyridin-4-yl]methyl}piperazin-1-yl)methanone]
8.24	COCCCNc1cc(-c2ccc3nc(Nc4cc(CN5CCN(C(=O)OC(C)(C)C)CC5)ccn4)[nH]c3c2)ncn1 [Example 90.01, tert-butyl 4-({2-[(6-{6-[(3-methoxypropyl)amino]pyrimidin-4-yl}-1H-benzimidazol-2-yl)amino]pyridin-4-yl}methyl)piperazine-1-carboxylate]
8.12	COc1cncnc1-c1ccc2nc(Nc3cc(C(C)N4CCN(C(=O)CC(F)(F)F)CC4)ccn3)[nH]c2c1 (racemic) [Example 35.02.01, (rac)-3,3,3-trifluoro-1-{4-[1-(2-{[6-(5-methoxypyrimidin-4-yl)-1H-benzimidazol-2-yl]amino}pyridin-4-yl)ethyl]piperazin-1-yl}propan-1-one]
8.08	COc1cncnc1-c1ccc2nc(Nc3cc(C(C)N4CCN(C(=O)CC5CC5)CC4)ccn3)[nH]c2c1 (single isomer, unassigned) [Example 35.03.02.A, 2-cyclopropyl-1-{4-[(1R or 1S)-1-(2-{[6-(5-methoxypyrimidin-4-yl)-1H-benzimidazol-2-yl]amino}pyridin-4-yl)ethyl]piperazin-1-yl}ethanone]
